The assay has as its target T1, Nanoluciferase-BRD9 fusion protein (3×FLAG-NLuc-BRD9) in SYO-1 cells (Homo sapiens, UniProt Q9H8M2).
T1 construct: expressed in transfected cells; host or cells: SYO-1
T1 sequence (Q9H8M2 1-597): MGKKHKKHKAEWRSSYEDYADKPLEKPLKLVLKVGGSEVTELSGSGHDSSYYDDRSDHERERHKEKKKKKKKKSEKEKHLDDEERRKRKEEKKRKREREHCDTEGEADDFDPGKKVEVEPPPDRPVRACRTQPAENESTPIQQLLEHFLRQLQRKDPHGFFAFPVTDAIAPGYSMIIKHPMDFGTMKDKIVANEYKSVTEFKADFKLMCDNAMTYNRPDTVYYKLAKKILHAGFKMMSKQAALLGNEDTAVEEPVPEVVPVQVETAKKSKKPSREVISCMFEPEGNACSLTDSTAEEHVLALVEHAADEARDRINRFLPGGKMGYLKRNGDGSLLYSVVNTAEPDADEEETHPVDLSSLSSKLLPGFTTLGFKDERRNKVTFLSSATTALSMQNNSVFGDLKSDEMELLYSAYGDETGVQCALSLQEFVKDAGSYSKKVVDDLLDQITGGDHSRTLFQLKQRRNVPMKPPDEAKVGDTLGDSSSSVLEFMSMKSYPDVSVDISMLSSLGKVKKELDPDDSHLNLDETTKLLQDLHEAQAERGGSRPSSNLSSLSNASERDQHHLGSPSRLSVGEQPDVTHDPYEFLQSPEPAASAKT
Nature of the assay: SYO1 BRD9 NanoLuc degradation assay. The assay is classed as cell-based. The note with it: Table 6B; SYO-1 cells expressing 3×FLAG-NLuc-BRD9, 6 hours incubation, 1 μM top dose; read-out: SYO1 BRD9-NanoLuc degradation IC50. The method, then: Procedure: A stable SYO-1 cell line expressing 3×FLAG-NLuc-BRD9 was generated. On day 0 cells were seeded in 30 μL media into each well of 384-well cell culture plates. The seeding density was 8000 cells/well. On day 1, cells were treated with 30 nL DMSO or 30 nL of 3-fold serially DMSO-diluted compounds (10 points in duplicates with 1 μM as final top dose). Subsequently plates were incubated for 6 hours in a standard tissue culture incubator and equilibrated at room temperature for 15 minutes. Nanoluciferase activity was measured by adding 15 μL of freshly prepared Nano-Glo Luciferase Assay Reagent (Promega N1130), shaking the plates for 10 minutes and reading the bioluminescence using an EnVision reader. • Results: The Inhibition % was calculated using the following formula: % Inhibition=100×(LumHC−LumSample)/(LumHC−LumLC). DMSO treated cells are employed as High Control (HC) and 1 μM of a known BRD9 degrader standard treated cells are employed as Low Control (LC).
As to `COc1cc(-c2cn(C)c(=O)c3cc(C(=O)NC4CCC45CCN(C(=O)CCN4CCN(c6ccc7c(c6)C(=O)N(C6CCC(=O)NC6=O)C7=O)CC4)CC5)sc23)cc(OC)c1CN(C)C` (stereo not drawn) [Compound D54], the DC50 is above 100 nM.
The figure for `COc1cc(-c2cn(C)c(=O)c3cc(C(=O)NC4CCC45CCN(CCCN4CCN(c6ccc7c(c6)C(=O)N(C6CCC(=O)NC6=O)C7=O)CC4)CC5)sc23)cc(OC)c1CN(C)C` (stereo not drawn) [Compound D55] is above 100 nM; for `COc1cc(-c2cn(C)c(=O)c3cc(C(=O)NCC4CC45CCN(CCCN4CCN(c6ccc7c(c6)C(=O)N(C6CCC(=O)NC6=O)C7=O)CC4)CC5)sc23)cc(OC)c1CN(C)C` (stereo not drawn) [Compound D56] it is above 10 nM.
The figure for `COc1cc(-c2cn(C)c(=O)c3cc(C(=O)NCC4CC45CCN(CCN4CCN(c6ccc7c(c6)C(=O)N(C6CCC(=O)NC6=O)C7=O)CC4)CC5)sc23)cc(OC)c1CN(C)C` (stereo not drawn) [Compound D57] is below 10 nM.
The value for `COc1cc(-c2cn(C)c(=O)c3cc(C(=O)NC4CCC5CN(C(=O)CCN6CCN(c7ccc8c(c7)C(=O)N(C7CCC(=O)NC7=O)C8=O)CC6)CC54)sc23)cc(OC)c1CN(C)C` (stereo not drawn) [Compound D58] was above 10 nM; that for `COc1cc(-c2cn(C)c(=O)c3cc(NC(=O)C4CCN(CCCCCOc5cccc6c5C(=O)N(C5CCC(=O)NC5=O)C6=O)CC4(F)F)sc23)cc(OC)c1CN(C)C` (stereo not drawn) [Compound D59] was above 10 nM.
Consider `COc1cc(-c2cn(C)c(=O)c3cc(C(=O)NC4CCN(CCCN5CCN(c6ccc7c(c6)C(=O)N(C6CCC(=O)NC6=O)C7=O)CC5)CC4(F)F)sc23)cc(OC)c1CN(C)C` (stereo not drawn) [Compound D60], for which the DC50 was below 10 nM.
With `COc1cc(-c2cn(C)c(=O)c3cc(C(=O)NCC4CC5(CCN(C(=O)CCN6CCN(c7ccc8c(c7)C(=O)N(C7CCC(=O)NC7=O)C8=O)CC6)CC5)O4)sc23)cc(OC)c1CN(C)C` (stereo not drawn) [Compound D61], the DC50 is above 100 nM.
For `COc1cc(-c2cn(C)c(=O)c3cc(C(=O)NCC4CC5(CCN(CCN6CCN(c7ccc8c(c7)C(=O)N(C7CCC(=O)NC7=O)C8=O)CC6)CC5)O4)sc23)cc(OC)c1CN(C)C` (stereo not drawn) [Compound D62], the DC50 is above 10 nM.
The figure for `COc1cc(-c2cn(C)c(=O)c3cc(C(=O)NC4C[C@@H]5CN(C(=O)CCN6CCN(c7ccc8c(c7)C(=O)N(C7CCC(=O)NC7=O)C8=O)CC6)C[C@H]45)sc23)cc(OC)c1CN(C)C` (stereo partly drawn) [Compound D63] is above 100 nM; for `COc1cc(-c2cn(C)c(=O)c3cc(C(=O)NC4C[C@@H]5CN(CCN6CCN(c7ccc8c(c7)C(=O)N(C7CCC(=O)NC7=O)C8=O)CC6)C[C@H]45)sc23)cc(OC)c1CN(C)C` (stereo partly drawn) [Compound D64] it is above 100 nM.
The value for `COc1cc(-c2cn(C)c(=O)c3cc(C(=O)NC4CC5(CCN(CCN6CCN(c7ccc8c(c7)C(=O)N([C@@H]7CCC(=O)NC7=O)C8=O)CC6)C5)C4)sc23)cc(OC)c1CN(C)C` (stereo partly drawn) [Compound D65] was below 10 nM.
The value for `COc1cc(-c2cn(C)c(=O)c3cc(C(=O)NC4CC5(CCN(CCN6CCN(c7ccc8c(c7)C(=O)N([C@H]7CCC(=O)NC7=O)C8=O)CC6)C5)C4)sc23)cc(OC)c1CN(C)C` (stereo partly drawn) [Compound D66] was below 10 nM; that for `COc1cc(-c2cn(C)c(=O)c3cc(C(=O)NCC4CC45CCN(C(=O)CCN4CCN(c6ccc7c(c6)C(=O)N(C6CCC(=O)NC6=O)C7=O)CC4)CC5)sc23)cc(OC)c1CN(C)C` (stereo not drawn) [Compound D67] was above 10 nM.
For `COc1cc(-c2cn(C)c(=O)c3cc(C(=O)NC4CC5CC4CN5C(=O)CCN4CCN(c5ccc6c(c5)C(=O)N(C5CCC(=O)NC5=O)C6=O)CC4)sc23)cc(OC)c1CN(C)C` (stereo not drawn) [Compound D68], the DC50 is above 10 nM.
Consider `COc1cc(-c2cn(C)c(=O)c3cc(C(=O)NC4CC5CC4CN5CCCN4CCN(c5ccc6c(c5)C(=O)N(C5CCC(=O)NC5=O)C6=O)CC4)sc23)cc(OC)c1CN(C)C` (stereo not drawn) [Compound D69], for which the DC50 was above 10 nM.
In the case of `COc1cc(-c2cn(C)c(=O)c3cc(C(=O)NC4CC5CC4CN5CCN4CCN(c5ccc6c(c5)C(=O)N(C5CCC(=O)NC5=O)C6=O)CC4)sc23)cc(OC)c1CN(C)C` (stereo not drawn) [Compound D70], the DC50 is below 10 nM.
The figure for `COc1cc(-c2cn(C)c(=O)c3cc(NC4CCN(C(=O)CCCCOc5ccc6c(c5)C(=O)N(C5CCC(=O)NC5=O)C6=O)CC4)sc23)cc(OC)c1CN(C)C` (stereo not drawn) [Compound D71] is above 10 nM; for `COc1cc(-c2cn(C)c(=O)c3cc(C(=O)NC4CC5(CCN(C(=O)CCN6CCN(c7ccc8c(c7)C(=O)N(C7CCC(=O)NC7=O)C8=O)CC6)C5)C4)sc23)cc(OC)c1CN(C)C` (stereo not drawn) [Compound D72] it is below 10 nM.
The figure for `COc1cc(-c2cn(C)c(=O)c3cc(C(=O)NC4CC5(CCN(CCCN6CCN(c7ccc8c(c7)C(=O)N(C7CCC(=O)NC7=O)C8=O)CC6)C5)C4)sc23)cc(OC)c1CN(C)C` (stereo not drawn) [Compound D73] is below 10 nM; for `COc1cc(-c2cn(C)c(=O)c3cc(C(=O)NC4CC5(C4)CN(C(=O)CCN4CCN(c6ccc7c(c6)C(=O)N(C6CCC(=O)NC6=O)C7=O)CC4)C5)sc23)cc(OC)c1CN(C)C` (stereo not drawn) [Compound D74] it is below 10 nM; for `COc1cc(-c2cn(C)c(=O)c3cc(C(=O)NC4CC5(C4)CN(CCCN4CCN(c6ccc7c(c6)C(=O)N(C6CCC(=O)NC6=O)C7=O)CC4)C5)sc23)cc(OC)c1CN(C)C` (stereo not drawn) [Compound D75] it is below 10 nM.
The figure for `COc1cc(-c2cn(C)c(=O)c3cc(C(=O)NC4CC5CN(C(=O)CCN6CCN(c7ccc8c(c7)C(=O)N(C7CCC(=O)NC7=O)C8=O)CC6)CC5C4)sc23)cc(OC)c1CN(C)C` (stereo not drawn) [Compound D76] is above 10 nM.
For the compound `COc1cc(-c2cn(C)c(=O)c3cc(C(=O)NC4CCN(C(=O)CN5CCN(c6ccc7c(c6)C(=O)N(C6CCC(=O)NC6=O)C7=O)CC5)CC4)sc23)cc(OC)c1CN(C)C` (stereo not drawn) [Compound D77], the DC50 was below 10 nM.
In the case of `COc1cc(-c2cn(C)c(=O)c3cc(C(=O)NC4CCN(C(=O)CCN5CCN(c6ccc7c(c6)C(=O)N(C6CCC(=O)NC6=O)C7=O)CC5)CC4)sc23)cc(OC)c1CN(C)C` (stereo not drawn) [Compound D78], the DC50 is below 10 nM.
The figure for `COc1cc(-c2cn(C)c(=O)c3cc(C(=O)NC4CCN(CCN5CCN(c6ccc7c(c6)C(=O)N(C6CCC(=O)NC6=O)C7=O)CC5)CC4(F)F)sc23)cc(OC)c1CN(C)C` (stereo not drawn) [Compound D79] is below 10 nM; for `COc1cc(-c2cn(C)c(=O)c3cc(C(=O)NC4CCC(N(C)CCCCOc5cccc6c5C(=O)N(C5CCC(=O)NC5=O)C6=O)CC4)sc23)cc(OC)c1CN(C)C` (stereo not drawn) [Compound D80] it is above 100 nM.
The figure for `COc1cc(-c2cn(C)c(=O)c3cc(C(=O)NCC4CCN(CCCCOc5cccc6c5C(=O)N(C5CCC(=O)NC5=O)C6=O)CC4)sc23)cc(OC)c1CN(C)C` (stereo not drawn) [Compound D81] is above 100 nM.
For `COc1cc(-c2cn(C)c(=O)c3cc(C(=O)NC4CC5CC4CN5CCCCCOc4cccc5c4C(=O)N(C4CCC(=O)NC4=O)C5=O)sc23)cc(OC)c1CN(C)C` (stereo not drawn) [Compound D82], the DC50 is above 100 nM.
The figure for `COc1cc(-c2cn(C)c(=O)c3cc(C(=O)NC4CCN(CC(F)(F)CCCOc5ccc6c(c5)C(=O)N(C5CCC(=O)NC5=O)C6=O)CC4)sc23)cc(OC)c1CN(C)C` (stereo not drawn) [Compound D83] is below 10 nM.
In the case of `COc1cc(-c2cn(C)c(=O)c3cc(C(=O)NC4CCN(CCCCCOc5cccc6c5C(=O)N(C5CCC(=O)NC5=O)C6=O)CC4F)sc23)cc(OC)c1CN(C)C` (stereo not drawn) [Compound D84], the DC50 is below 10 nM.
Take `COc1cc(-c2cn(C)c(=O)c3cc(C(=O)NC4CCN(CCCCCOc5ccc6c(c5)C(=O)N(C5CCC(=O)NC5=O)C6=O)CC4F)sc23)cc(OC)c1CN(C)C` (stereo not drawn) [Compound D85]: the DC50 was below 10 nM.
The figure for `COc1cc(-c2cn(C)c(=O)c3cc(C(=O)NC4CCN(CCCCN5CCN(c6ccc7c(c6)C(=O)N(C6CCC(=O)NC6=O)C7=O)CC5)CC4)sc23)cc(OC)c1CN(C)C` (stereo not drawn) [Compound D86] is below 10 nM; for `COc1cc(-c2cn(C)c(=O)c3cc(C(=O)NC4CCCN(CCCCCOc5ccc6c(c5)C(=O)N(C5CCC(=O)NC5=O)C6=O)CC4)sc23)cc(OC)c1CN(C)C` (stereo not drawn) [Compound D87] it is below 10 nM.
The figure for `COc1cc(-c2cn(C)c(=O)c3cc(C(=O)NC4CCCN(CCCCCOc5cccc6c5C(=O)N(C5CCC(=O)NC5=O)C6=O)CC4)sc23)cc(OC)c1CN(C)C` (stereo not drawn) [Compound D88] is above 10 nM.
The value for `COc1cc(-c2cn(C)c(=O)c3cc(C(=O)NC4CCN(CCCCCOc5ccc6c(c5)C(=O)N(C5CCC(=O)NC5=O)C6=O)CC4)sc23)cc(OC)c1CN(C)C` (stereo not drawn) [Compound D89] was below 10 nM.

For the origin of these results see US12686687B2, “Compounds and uses thereof” (Foghorn Therapeutics Inc., priority 2019, dated 2026).
